Laboratory results published in patent US20250312499A1, “KISSPEPTIN RECEPTOR (KISS1R) TARGETED THERAPEUTICS AND USES THEREOF” (priority 2024, published 2025).
pKi: −log10 of the molar value. Numbered stars: 1 amine (or outer) side, 2 acyl side, 3 side chain; on linkers, the order of the positions; unused ones are H or OH. Square brackets hold non-standard residues; d marks the D form. Peptide text beside a SMILES is read from it. * marks the point of attachment. DOTA = O=C(O)CN1CCN(CC(=O)O)CCN(CC(=O)*)CCN(CC(=O)O)CC1; Gly(N-(3-F-4-Me-benzyl)) = Cc1ccc(CNCC(=O)*)cc1F; Gly(Nα-4-MeO-benzyl) = COc1ccc(CNCC(=O)*)cc1; d(γGlu) = O=C(O)[C@@H](CCC(=O)[*:2])N[*:1]; Bip = N[C@@H](Cc1ccc(-c2ccccc2)cc1)C(=O)O; Phe(3-F) = N[C@@H](Cc1cccc(F)c1)C(=O)O; Trx = NC[C@H]1CC[C@H](C(=O)O)CC1; X1 = O=C(CN1CCC(N[*:1])CC1)[*:2]; dCya = N[C@H](CS(=O)(=O)O)C(=O)O; Cha = N[C@@H](CC1CCCCC1)C(=O)O; 4Amb = NCc1ccc(C(=O)O)cc1; Api = NC1(C(=O)O)CCNCC1; Ahx = NCCCCCC(=O)O; azaGly = NNC(=O)O

Target: human kisspeptin receptor (Homo sapiens (Human), UniProt Q969F8)
Sequence (Q969F8 whole entry): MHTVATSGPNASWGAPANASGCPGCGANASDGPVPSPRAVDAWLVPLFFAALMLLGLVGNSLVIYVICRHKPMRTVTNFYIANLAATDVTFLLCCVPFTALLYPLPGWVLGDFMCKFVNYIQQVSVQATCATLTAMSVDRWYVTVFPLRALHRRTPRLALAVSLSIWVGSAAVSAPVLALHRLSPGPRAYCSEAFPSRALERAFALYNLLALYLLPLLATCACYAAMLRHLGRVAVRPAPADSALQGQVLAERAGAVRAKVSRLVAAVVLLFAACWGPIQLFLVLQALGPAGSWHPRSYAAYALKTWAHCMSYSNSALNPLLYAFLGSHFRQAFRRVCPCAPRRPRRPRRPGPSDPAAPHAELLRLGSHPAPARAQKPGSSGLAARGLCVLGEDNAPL
Assay: Human KISS1R binding assay (membrane competition binding)
Details: 90 min at room temperature; competition with 0.2 nM [125I]-metastin (45-54); Flp-In T-Rex 293 kisspeptin membranes; metal complexes nonradioactive Ga, In, Lu; read-out: hKiSSR Binding Ki (90 min)
How it was run: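 Membranes from tetracycline-induced (48 h) Flp-In T-Rex 293 cells expressing receptor, 5–10 μg, incubated 90 min at room temperature with 0.2 nM [125I]-metastin (45-54) and competitor (typically 0–10,000 nM) in Tris/Mg/Ca/EGTA/0.1% BSA, pH 7.4. Filtration, washing, counting; Ki by non-linear regression.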

| SMILES | pKi |
| --- | --- |
| COc1ccc(CNCC(=O)N2CCC(NC(=O)[C@H](CC(C)C)NC(=O)NNC(=O)[C@H](Cc3ccccc3)NC(=O)[C@@H](NC(=O)[C@H](CC(N)=O)NC(=O)[C@@H](Cc3c[nH]c4ccccc34)NC(=O)[C@@H](Cc3ccc(O)cc3)NC(=O)CCCCCNC(=O)CN3CCN(CC(=O)O)CCN(CC(=O)O)CCN(CC(=O)O)CC3)[C@@H](C)O)(C(=O)N[C@@H](Cc3ccccc3)C(N)=O)CC2)cc1 [Compound 140] ({DOTA-Ahx}-[dY][dW]NTF[azaGly]L[Api](Gly(Nα-4-MeO-benzyl))F-NH2) | > 8.00 |
| Cc1ccc(CNCC(=O)N2CCC(NC(=O)[C@H](CC(C)C)NC(=O)NNC(=O)[C@H](Cc3ccccc3)NC(=O)CCCCCNC(=O)CN3CCN(CC(=O)O)CCN(CC(=O)O)CCN(CC(=O)O)CC3)(C(=O)N[C@@H](CC3CCCCC3)C(N)=O)CC2)cc1F [Compound 141] ({DOTA-Ahx}-F[azaGly]L[Api](Gly(N-(3-F-4-Me-benzyl)))[Cha]-NH2) | 7.00 to 8.00 |
| Cc1ccc(CNCC(=O)N2CCC(NC(=O)[C@H](CC(C)C)NC(=O)NNC(=O)[C@H](Cc3ccccc3)NC(=O)c3ccc(CNC(=O)[C@@H](CS(=O)(=O)O)NC(=O)[C@@H](CS(=O)(=O)O)NC(=O)CN4CCN(CC(=O)O)CCN(CC(=O)O)CCN(CC(=O)O)CC4)cc3)(C(=O)N[C@@H](Cc3c[nH]c4ccccc34)C(N)=O)CC2)cc1F [Compound 146] ({DOTA}-[dCya][dCya][4Amb]F[azaGly]L[Api](Gly(N-(3-F-4-Me-benzyl)))W-NH2) | > 8.00 |
| Cc1ccc(CNCC(=O)N2CCC(NC(=O)[C@H](CC(C)C)N[C@H](CNC(=O)[C@H](Cc3ccccc3)NC(=O)CCCCCNC(=O)CN3CCN(CC(=O)O)CCN(CC(=O)O)CCN(CC(=O)O)CC3)C(F)(F)F)(C(=O)N[C@@H](Cc3c[nH]c4ccccc34)C(N)=O)CC2)cc1F [Compound 147] | < 7.00 |
| Cc1ccc(CNCC(=O)N2CCC(NC(=O)[C@H](CC(C)C)NC(=O)NNC(=O)[C@H](Cc3ccccc3)NC(=O)[C@@H](NC(=O)[C@H](CC(N)=O)NC(=O)[C@@H](Cc3c[nH]c4ccccc34)NC(=O)[C@@H](Cc3ccc(O)cc3)NC(=O)CCCCCNC(=O)[C@H](Cc3ccc(O)cc3)NC(=O)CNC(=O)c3ccc(CNC(=O)CN4CCN(CC(=O)O)CCN(CC(=O)O)CCN(CC(=O)O)CC4)cc3)[C@@H](C)O)(C(=O)N[C@@H](Cc3c[nH]c4ccccc34)C(N)=O)CC2)cc1F [Compound 149] ({DOTA-4Amb}-GY[Ahx][dY][dW]NTF[azaGly]L[Api](Gly(N-(3-F-4-Me-benzyl)))W-NH2) | > 8.00 |
| Cc1ccc(CNCC(=O)N2CCC(NC(=O)[C@H](CC(C)C)NC(=O)NNC(=O)[C@H](Cc3ccccc3)NC(=O)[C@H]3CC[C@H](CNC(=O)CC[C@@H](NC(=O)CN4CCN(CC(=O)O)CCN(CC(=O)O)CCN(CC(=O)O)CC4)C(=O)O)CC3)(C(=O)N[C@@H](Cc3c[nH]c4ccccc34)C(N)=O)CC2)cc1F [Compound 165] ({DOTA-d(γGlu)-Trx}-F[azaGly]L[Api](Gly(N-(3-F-4-Me-benzyl)))W-NH2) | > 8.00 |

The remaining lines, values ahead:

| pKi | SMILES |
| --- | --- |
| > 8.00 | Cc1ccc(CNCC(=O)N2CCC(NC(=O)[C@H](CC(C)C)NC(=O)NNC(=O)[C@H](Cc3ccc(-c4ccccc4)cc3)NC(=O)CN3CCC(NC(=O)CN4CCN(CC(=O)O)CCN(CC(=O)O)CCN(CC(=O)O)CC4)CC3)(C(=O)N[C@@H](Cc3c[nH]c4ccccc34)C(N)=O)CC2)cc1F [Compound 142] ({DOTA}-[X1][Bip][azaGly]L[Api](Gly(N-(3-F-4-Me-benzyl)))W-NH2) |
| 7.00 to 8.00 | Cc1ccc(CNCC(=O)N2CCC(NC(=O)[C@H](CC(C)C)N[C@@H](CNC(=O)[C@H](Cc3ccccc3)NC(=O)CCCCCNC(=O)CN3CCN(CC(=O)O)CCN(CC(=O)O)CCN(CC(=O)O)CC3)C(F)(F)F)(C(=O)N[C@@H](Cc3c[nH]c4ccccc34)C(N)=O)CC2)cc1F [Compound 148] |
| > 8.00 | Cc1ccc(CNCC(=O)N2CCC(NC(=O)[C@H](CC(C)C)NC(=O)NNC(=O)[C@H](Cc3ccccc3)NC(=O)[C@@H](NC(=O)[C@H](CC(N)=O)NC(=O)[C@@H](Cc3c[nH]c4ccccc34)NC(=O)[C@H](Cc3ccc(O)cc3)NC(=O)CNC(=O)CN3CCN(CC(=O)O)CCN(CC(=O)O)CCN(CC(=O)O)CC3)[C@@H](C)O)(C(=O)N[C@@H](Cc3c[nH]c4ccccc34)C(N)=O)CC2)cc1F [Compound 151] ({DOTA}-GY[dW]NTF[azaGly]L[Api](Gly(N-(3-F-4-Me-benzyl)))W-NH2) |
| > 8.00 | Cc1ccc(CNCC(=O)N2CCC(NC(=O)[C@H](CC(C)C)NC(=O)NNC(=O)[C@H](Cc3ccccc3)NC(=O)CC[C@@H](NC(=O)CN3CCN(CC(=O)O)CCN(CC(=O)O)CCN(CC(=O)O)CC3)C(=O)O)(C(=O)N[C@@H](Cc3c[nH]c4ccccc34)C(N)=O)CC2)cc1F [Compound 156] ({DOTA-d(γGlu)}-F[azaGly]L[Api](Gly(N-(3-F-4-Me-benzyl)))W-NH2) |
| > 8.00 | Cc1ccc(CNCC(=O)N2CCC(NC(=O)[C@H](CC(C)C)NC(=O)NNC(=O)[C@H](Cc3ccccc3)NC(=O)[C@@H](NC(=O)[C@H](CC(N)=O)NC(=O)CN3CCC(NC(=O)CN4CCN(CC(=O)O)CCN(CC(=O)O)CCN(CC(=O)O)CC4)CC3)[C@@H](C)O)(C(=O)N[C@@H](Cc3c[nH]c4ccccc34)C(N)=O)CC2)cc1F [Compound 158] ({DOTA}-[X1]NTF[azaGly]L[Api](Gly(N-(3-F-4-Me-benzyl)))W-NH2) |
| > 8.00 | Cc1ccc(CNCC(=O)N2CCC(NC(=O)[C@H](CC(C)C)NC(=O)NNC(=O)[C@H](Cc3cccc(F)c3)NC(=O)[C@@H](NC(=O)[C@H](CC(N)=O)NC(=O)[C@H](CCC(=O)O)NC(=O)CN3CCC(NC(=O)CN4CCN(CC(=O)O)CCN(CC(=O)O)CCN(CC(=O)O)CC4)CC3)[C@@H](C)O)(C(=O)N[C@@H](Cc3c[nH]c4ccccc34)C(N)=O)CC2)cc1F [Compound 159] ({DOTA}-[X1]ENT[Phe(3-F)][azaGly]L[Api](Gly(N-(3-F-4-Me-benzyl)))W-NH2) |
| > 8.00 | Cc1ccc(CNCC(=O)N2CCC(NC(=O)[C@H](CC(C)C)NC(=O)NNC(=O)[C@H](Cc3cccc(F)c3)NC(=O)[C@@H](NC(=O)[C@H](CC(N)=O)NC(=O)[C@H](CCC(=O)O)NC(=O)[C@H]3CC[C@H](CNC(=O)CN4CCN(CC(=O)O)CCN(CC(=O)O)CCN(CC(=O)O)CC4)CC3)[C@@H](C)O)(C(=O)N[C@@H](Cc3c[nH]c4ccccc34)C(N)=O)CC2)cc1F [Compound 160] ({DOTA-Trx}-ENT[Phe(3-F)][azaGly]L[Api](Gly(N-(3-F-4-Me-benzyl)))W-NH2) |
| > 8.00 | Cc1ccc(CNCC(=O)N2CCC(NC(=O)[C@H](CC(C)C)NC(=O)NNC(=O)[C@H](Cc3cccc(F)c3)NC(=O)[C@@H](NC(=O)[C@H](CC(N)=O)NC(=O)[C@@H](CCC(=O)O)NC(=O)[C@H]3CC[C@H](CNC(=O)CN4CCN(CC(=O)O)CCN(CC(=O)O)CCN(CC(=O)O)CC4)CC3)[C@@H](C)O)(C(=O)N[C@@H](Cc3c[nH]c4ccccc34)C(N)=O)CC2)cc1F [Compound 161] ({DOTA-Trx}-[dE]NT[Phe(3-F)][azaGly]L[Api](Gly(N-(3-F-4-Me-benzyl)))W-NH2) |
| > 8.00 | Cc1ccc(CNCC(=O)N2CCC(NC(=O)[C@H](CC(C)C)NC(=O)NNC(=O)[C@H](Cc3cccc(F)c3)NC(=O)[C@@H](NC(=O)[C@H](CC(N)=O)NC(=O)[C@H](CCCCN)NC(=O)CN3CCC(NC(=O)CN4CCN(CC(=O)O)CCN(CC(=O)O)CCN(CC(=O)O)CC4)CC3)[C@@H](C)O)(C(=O)N[C@@H](Cc3c[nH]c4ccccc34)C(N)=O)CC2)cc1F [Compound 164] ({DOTA}-[X1]KNT[Phe(3-F)][azaGly]L[Api](Gly(N-(3-F-4-Me-benzyl)))W-NH2) |
